Values quoted from earlier work in paper PMC4851381, “High Throughput Screening Identifies Novel Lead Compounds with Activity against Larval, Juvenile and Adult Schistosoma mansoni” (PLoS Neglected Tropical Diseases, 2016).

What was measured:
Cyp2C19 = system: Cyp2C19; set-up: method as in ChEMBL; details: ref ChEMBL; cited from earlier work
Cyp3A4 = system: Cyp3A4; set-up: method as in ChEMBL; details: ref ChEMBL; cited from earlier work

**Q.** What does the source list for `Cc1[nH]c2ccccc2c1C(c1ccccn1)N1CCC(C)CC1` (centres unmarked) [CHEMBL1517121]?
**A.** AC50 (Cyp2C19): 13 µM; AC50 (Cyp3A4): 2 µM
